According to PubChem BioAssay (NCI):
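Growth conditions: 96-well plates. Treatment: test compound, 48 hours, 5 concentrations. Analysis: linear interpolation between bracketing concentrations; unreached endpoints set to highest concentration. Abbreviation: GI50, concentration required for 50% inhibition of growth. TGI denotes the concentration required for complete inhibition of growth.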

Experiments:
Assay in all cases: inhibition of tumour cell growth, NCI panel, 48 h
786-0 renal = tested on: 786-0 renal
A498 renal = tested on: A498 renal
A549 NSCLC = tested on: A549 NSCLC
ACHN renal = tested on: ACHN renal
BT-549 breast = tested on: BT-549 breast
CAKI-1 renal = tested on: CAKI-1 renal
CCRF-CEM leukemia = tested on: CCRF-CEM leukemia
COLO 205 colon = tested on: COLO 205 colon
DU-145 prostate = tested on: DU-145 prostate
EKVX NSCLC = tested on: EKVX NSCLC
HCC-2998 colon = tested on: HCC-2998 colon
HCT-116 colon = tested on: HCT-116 colon
HCT-15 colon = tested on: HCT-15 colon
HL-60(TB) leukemia = tested on: HL-60(TB) leukemia
HOP-62 NSCLC = tested on: HOP-62 NSCLC
HOP-92 NSCLC = tested on: HOP-92 NSCLC
HS 578T breast = tested on: HS 578T breast
HT29 colon = tested on: HT29 colon
IGROV1 ovarian = tested on: IGROV1 ovarian
K-562 leukemia = tested on: K-562 leukemia
KM12 colon = tested on: KM12 colon
LOX IMVI melanoma = tested on: LOX IMVI melanoma
M14 melanoma = tested on: M14 melanoma
MALME-3M melanoma = tested on: MALME-3M melanoma
MCF7 breast = tested on: MCF7 breast
MDA-MB-231 breast = tested on: MDA-MB-231 breast
MDA-MB-435 = tested on: MDA-MB-435
MOLT-4 leukemia = tested on: MOLT-4 leukemia
NCI-H226 lung = tested on: NCI-H226 lung
NCI-H23 lung = tested on: NCI-H23 lung
NCI-H460 lung = tested on: NCI-H460 lung
NCI-H522 lung = tested on: NCI-H522 lung
NCI/ADR-RES ovarian = tested on: NCI/ADR-RES ovarian
OVCAR-3 ovarian = tested on: OVCAR-3 ovarian
OVCAR-4 ovarian = tested on: OVCAR-4 ovarian
OVCAR-5 ovarian = tested on: OVCAR-5 ovarian
OVCAR-8 ovarian = tested on: OVCAR-8 ovarian
PC-3 prostate = tested on: PC-3 prostate
RPMI-8226 leukemia = tested on: RPMI-8226 leukemia
RXF 393 renal = tested on: RXF 393 renal
SF-268 CNS = tested on: SF-268 CNS
SF-295 CNS = tested on: SF-295 CNS
SF-539 CNS = tested on: SF-539 CNS
SK-MEL-2 melanoma = tested on: SK-MEL-2 melanoma
SK-MEL-28 melanoma = tested on: SK-MEL-28 melanoma
SK-MEL-5 melanoma = tested on: SK-MEL-5 melanoma
SK-OV-3 ovarian = tested on: SK-OV-3 ovarian
SN12C renal = tested on: SN12C renal
SNB-19 CNS = tested on: SNB-19 CNS
SNB-75 CNS = tested on: SNB-75 CNS
SR leukemia = tested on: SR leukemia
SW-620 colon = tested on: SW-620 colon
T-47D breast = tested on: T-47D breast
TK-10 renal = tested on: TK-10 renal
U251 CNS = tested on: U251 CNS
UACC-257 melanoma = tested on: UACC-257 melanoma
UACC-62 melanoma = tested on: UACC-62 melanoma
UO-31 renal = tested on: UO-31 renal

COc1ccccc1NC(=O)n1nc(N)c2ccccc21
GI50 (786-0 renal): > 84 µM
TGI (786-0 renal): > 100 µM
GI50 (A498 renal): > 68.7 µM
TGI (A498 renal): > 100 µM
GI50 (A549 NSCLC): > 86.9 µM
TGI (A549 NSCLC): > 100 µM
GI50 (ACHN renal): > 81.7 µM
TGI (ACHN renal): > 100 µM
GI50 (BT-549 breast): 39.3 µM
TGI (BT-549 breast): > 100 µM
GI50 (CAKI-1 renal): > 100 µM
TGI (CAKI-1 renal): > 100 µM
GI50 (CCRF-CEM leukemia): > 100 µM
TGI (CCRF-CEM leukemia): > 100 µM
GI50 (COLO 205 colon): > 100 µM
TGI (COLO 205 colon): > 100 µM
GI50 (DU-145 prostate): > 100 µM
TGI (DU-145 prostate): > 100 µM
GI50 (EKVX NSCLC): 55.9 µM
TGI (EKVX NSCLC): > 100 µM
GI50 (HCC-2998 colon): > 81.4 µM
TGI (HCC-2998 colon): > 100 µM
GI50 (HCT-116 colon): > 71.7 µM
TGI (HCT-116 colon): > 100 µM
GI50 (HCT-15 colon): 63.6 µM
TGI (HCT-15 colon): > 100 µM
GI50 (HL-60(TB) leukemia): 55 µM
TGI (HL-60(TB) leukemia): > 100 µM
GI50 (HOP-62 NSCLC): > 69.3 µM
TGI (HOP-62 NSCLC): > 100 µM
GI50 (HOP-92 NSCLC): 22.7 µM
TGI (HOP-92 NSCLC): 76.5 µM
GI50 (HS 578T breast): 36.3 µM
TGI (HS 578T breast): > 100 µM
GI50 (HT29 colon): > 73.4 µM
TGI (HT29 colon): > 100 µM
GI50 (IGROV1 ovarian): 14.7 µM
TGI (IGROV1 ovarian): > 100 µM
GI50 (K-562 leukemia): 99.8 µM
TGI (K-562 leukemia): > 100 µM
GI50 (KM12 colon): 47.4 µM
TGI (KM12 colon): > 100 µM
GI50 (LOX IMVI melanoma): 82 µM
TGI (LOX IMVI melanoma): > 100 µM
GI50 (M14 melanoma): > 100 µM
TGI (M14 melanoma): > 100 µM
GI50 (MALME-3M melanoma): > 100 µM
TGI (MALME-3M melanoma): > 100 µM
GI50 (MCF7 breast): 0.0842 µM
TGI (MCF7 breast): 4.32 µM
GI50 (MDA-MB-231 breast): 66 µM
TGI (MDA-MB-231 breast): > 100 µM
GI50 (MDA-MB-435): > 100 µM
TGI (MDA-MB-435): > 100 µM
GI50 (MOLT-4 leukemia): 67.4 µM
TGI (MOLT-4 leukemia): > 100 µM
GI50 (NCI-H226 lung): > 74.7 µM
TGI (NCI-H226 lung): > 100 µM
GI50 (NCI-H23 lung): > 100 µM
TGI (NCI-H23 lung): > 100 µM
GI50 (NCI-H460 lung): 47.6 µM
TGI (NCI-H460 lung): > 100 µM
GI50 (NCI-H522 lung): 53.9 µM
TGI (NCI-H522 lung): > 100 µM
GI50 (NCI/ADR-RES ovarian): 87.4 µM
TGI (NCI/ADR-RES ovarian): > 100 µM
GI50 (OVCAR-3 ovarian): > 100 µM
TGI (OVCAR-3 ovarian): > 100 µM
GI50 (OVCAR-4 ovarian): > 68.1 µM
TGI (OVCAR-4 ovarian): > 100 µM
GI50 (OVCAR-5 ovarian): > 100 µM
TGI (OVCAR-5 ovarian): > 100 µM
GI50 (OVCAR-8 ovarian): > 78.3 µM
TGI (OVCAR-8 ovarian): > 100 µM
GI50 (PC-3 prostate): 64.1 µM
TGI (PC-3 prostate): > 100 µM
GI50 (RPMI-8226 leukemia): 48.7 µM
TGI (RPMI-8226 leukemia): > 100 µM
GI50 (RXF 393 renal): 36.7 µM
TGI (RXF 393 renal): > 100 µM
GI50 (SF-268 CNS): > 48.1 µM
TGI (SF-268 CNS): > 100 µM
GI50 (SF-295 CNS): 52.1 µM
TGI (SF-295 CNS): > 100 µM
GI50 (SF-539 CNS): 58.4 µM
TGI (SF-539 CNS): > 100 µM
GI50 (SK-MEL-2 melanoma): > 100 µM
TGI (SK-MEL-2 melanoma): > 100 µM
GI50 (SK-MEL-28 melanoma): > 100 µM
TGI (SK-MEL-28 melanoma): > 100 µM
GI50 (SK-MEL-5 melanoma): > 87.9 µM
TGI (SK-MEL-5 melanoma): > 100 µM
GI50 (SK-OV-3 ovarian): > 100 µM
TGI (SK-OV-3 ovarian): > 100 µM
GI50 (SN12C renal): > 100 µM
TGI (SN12C renal): > 100 µM
GI50 (SNB-19 CNS): > 100 µM
TGI (SNB-19 CNS): > 100 µM
GI50 (SNB-75 CNS): 37 µM
TGI (SNB-75 CNS): > 100 µM
GI50 (SR leukemia): 92.4 µM
TGI (SR leukemia): > 100 µM
GI50 (SW-620 colon): > 100 µM
TGI (SW-620 colon): > 100 µM
GI50 (T-47D breast): 12.1 µM
TGI (T-47D breast): > 100 µM
GI50 (TK-10 renal): 64.2 µM
TGI (TK-10 renal): > 100 µM
GI50 (U251 CNS): 74.1 µM
TGI (U251 CNS): > 100 µM
GI50 (UACC-257 melanoma): > 100 µM
TGI (UACC-257 melanoma): > 100 µM
GI50 (UACC-62 melanoma): > 100 µM
TGI (UACC-62 melanoma): > 100 µM
GI50 (UO-31 renal): > 63.3 µM
TGI (UO-31 renal): > 100 µM
